# Columns and labels:
# Assay type in all cases: cell-based, human
# aconitase = test: Aconitase activity in FRDA lymphoblast extracts (spectrophotometric, 340 nm); details: GM16214 lymphoblasts, 500 nM etravirine, after 48 hours, compared with GM16215
# Method: Whole-cell extracts from GM16215 lymphoblasts, GM16214 lymphoblasts and GM16214 lymphoblasts treated with etravirine were prepared in ice-cold CelLytic M buffer (Sigma-Aldrich) supplemented with 2 mM sodium citrate and Complete EDTA-free protease inhibitor cocktail (Roche Diagnostic). Spectrophotometric aconitase assays were performed at 25° C. with 100 μg of cell extracts using the BIOXYTECH Aconitase-340™ Assay (OxisResearch™ 21041). Spectrophotometric citrate synthase activities were assessed at 25° C. with 10-20 μg of cell extracts using the Citrate Synthase Assay Kit (Sigma-Aldrich CS0720). […] For the calculation of the activities, one unit of enzyme was expressed as the amount of protein that converted 1 μmol of substrate per minute at 25° C. Quantitative data are presented as mean±SEM of at least three independent experiments.
# To further explore the therapeutic potential of etravirine, we considered its ability to correct some of the defects associated with frataxin loss in cells derived from patients. […] To evaluate whether the increase in frataxin levels promoted by etravirine treatment is sufficient to restore ISC biogenesis in FRDA patient-derived cells, we measured the activity of aconitase upon etravirine treatment and compared it to the activity observed in cells derived from the healthy carrier parent. […]
# [1] = system: GM16214 and GM16215 lymphoblasts; test: Cell viability (XTT) after H2O2 treatment of lymphoblasts; details: 500 nM etravirine 24 h
# Method: Cells were treated with etravirine 500 nM for 24 h, then transferred (40000 cells/100 ul/well) into 96-well tissue culture plates. Cultures were supplemented for 16 h with 12.5 μM, 25 μM and 50 μM H2O2 (Sigma-Aldrich). After H2O2 treatment, 1 mg/ml XTT (2,3-Bis-(2-Methoxy-4-Nitro-5-Sulfophenyl)-2H-Tetrazolium-5-Carboxanilide) (INVITROGEN™, Thermo Fisher Scientific, Waltham, Mass. USA) and 0.25% Phenazine methosulfate (PMS, Fisher Scientific, Thermo Fisher Scientific, Waltham, Mass. USA) were added (25 μL/well) and cells were incubated for additional 2 h. Results were expressed as the percentage of reduction of absorbance at 450 nm by calibration with the absorbance of the control (untreated) cells. […]
# FIGS. 6A to 6E show how etravirine functionally can rescue frataxin deficiency in FRDA patient cells. […] Cell extracts were resolved on SDS-PAGE and analysed by western blot with anti-frataxin antibody and anti-tubulin as a loading control. […] Aconitase activity was measured spectrophotometrically at 340 nm as described in the Methods section. Data represent the average of three (C) or five (D) independent experiments±S.E.M. p-values were calculated with Student's t-test (*p<0.05) E): Lymphoblasts derived from FRDA patient (GM16214) or from the unaffected carrier parent (GM16215), were either treated with 500 nM etravirine for 24 hrs or with vehicle only. […]
# [2] = system: newly synthesized frataxin mRNA; test: Nascent frataxin transcripts (EU metabolic labeling, Click-iT capture, real-time PCR) in HEK293-fxn; details: 10 μM, 4 or 8 hours
# Excerpt: We then investigated whether the observed increase in frataxin protein levels is due to an upregulation of the frataxin mRNA, either promoted by an increase in the […] rate of frataxin mRNA or by its stabilization. To understand whether etravirine promotes de novo synthesis of frataxin mRNA, we metabolically labeled nascent transcripts through the incorporation of 5-ethynyl uridine (EU). Through a click chemistry-based reaction, biotin was then conjugated to EU-labelled transcripts, thus allowing selective isolation and analysis of newly synthesized mRNA. We therefore quantitatively analyzed the relative amount of newly synthesized frataxin mRNA in etravirine-treated HEK293-fxn cells, compared to untreated control cells. […] We then analyzed the effect of etravirine on the decay of frataxin transcript observed upon treatment with actinomycin. HEK293-fxn cells were treated with actinomycin for 4, 8 or 12 hours in the presence or absence of etravirine and frataxin mRNA was quantitated by RT-PCR.
# HEK 293-fxn stably expressing frataxin (A), HEK 293 (B), or FRDA lymphoblast cell line GM16203 (C) were treated with 10 μM etravirine for the indicated time points. Protein extracts were resolved on SDS-PAGE and analyzed by western blot with anti-frataxin antibody and anti-tubulin as a loading control. Etr: etravirine; tub: tubulin; fxn pre: frataxin precursor. […]
smiles,measurement,setting,value
Cc1cc(C#N)cc(C)c1Oc1nc(Nc2ccc(C#N)cc2)nc(N)c1Br [etravirine],aconitase activity in FRDA cells,aconitase,restore aconitase activity
same,protection from H2O2-induced cell death,"[1]; GM16214 patient lymphoblasts, then 12.5, 25, 50 μM H2O2 for 16 h",significantly protects
same,cell viability after H2O2 in healthy control cells upon etravirine treatment,"[1]; GM16215 lymphoblasts, then H2O2 for 16 h",no further improvement
same,relative amount of newly synthesized frataxin mRNA vs untreated control cells,[2],did not observe any difference

# From patent publication US10426775B2, “Methods for treating Friedreich's ataxia with etravirine” (Fratagene Therapeutics srl, priority 2017, dated 2019)
